In patent US4096174A, “Anionic naphthalene thioureido-diphenyloxides” (American Cyanamid Company, priority 1977, dated 1978):
Counter-ions that a name gives are not always drawn.

Experiments:
[1] = test system: late components of human complement (C3-C9); assay: Test, Code 035 (C3-C9 inhibitor), lysis of EAC 142; type: biochemical; details: two-fold serial dilution assay; higher well number indicates higher activity
Source text: An active inhibitor protects C2 from C1 and C4; (ii) Test, Code 035 (C3-C9 inhibitor) - This test determines the ability of the late components of human complement (C3-C9) to lyse EAC 142 in the presence of appropriate dilutions of the test compound. An active inhibitor protects EAC 142 from lysis by human C3-C9; (iii) Test, Code 036 (C-Shunt inhibitor) - In this test human erythrocytes rendered fragile are lysed in autologous serum via the shunt pathway activated by cobra venom factor in the presence of appropriate dilutions of the test compound. Inhibition of the shunt pathway results in failure of lysis; (iv) Forssman Vasculitis Test - Here, the well known complement dependent lesion, Forssman Vasculitis, is produced in guinea pigs by intradermal injection of rabbit anti-Forssman antiserum. […]

whole complement = assay: Complement Level Reduction Test (in vivo, capillary tube assay of serum); design: species or system guinea pig; details: 200 mg/kg

O=S(=O)(O)c1cc(NC(=S)Nc2ccc(Oc3ccc(NC(=S)Nc4cc(S(=O)(=O)O)cc5cc(S(=O)(=O)O)cc(S(=O)(=O)O)c45)c(NC(=S)Nc4cc(S(=O)(=O)O)cc5cc(S(=O)(=O)O)cc(S(=O)(=O)O)c45)c3)cc2NC(=S)Nc2cc(S(=O)(=O)O)cc3cc(S(=O)(=O)O)cc(S(=O)(=O)O)c23)c2c(S(=O)(=O)O)cc(S(=O)(=O)O)cc2c1 [8,8',8",8'"-{Oxybis[4,1,2-phenylbis(2-thioureylene)]}-tetra-1,3,6-naphthalenetrisulfonic acid dodecasodium salt]
C-Late 035 Wells [1]: +2 Wells
In Vivo Activity (Guinea Pig) % Inhibition (whole complement; Intraperitoneal, 30 minutes): -82%
In Vivo Activity (Guinea Pig) % Inhibition (whole complement; Intraperitoneal, 60 minutes): -88%
In Vivo Activity (Guinea Pig) % Inhibition (whole complement; Intraperitoneal, 120 minutes): -94%
In Vivo Activity (Guinea Pig) % Inhibition (whole complement; Intravenous, 2 minutes): -98%
In Vivo Activity (Guinea Pig) % Inhibition (whole complement; Intravenous, 30 minutes): -95%
In Vivo Activity (Guinea Pig) % Inhibition (whole complement; Intravenous, 120 minutes): -91%
